Measured values taken from patent US12616681B2, “Compositions and methods for treating renal injury” (priority 2019, dated 2026).

Assays:
[1] = system: contrast-induced acute kidney injury (CIAKI) mice; assay: CIAKI mouse model: AMP and adenosine levels in renal tissue; type: in vivo, C57/BL6 mice; conditions: 48 h after CM
Experimental: 48 h after CM administration, serum and kidney tissues were harvested. The adenosine levels in the serum and kidney tissues were measured using high-performance liquid chromatography.

[2] = system: contrast-induced acute kidney injury (CIAKI) mice; assay: CIAKI mouse model: renal blood flow (laser Doppler flux); type: in vivo, C57/BL6 mice; conditions: CM + drug, 48 h after CM
Experimental: Total RBF was assessed by measuring renal Doppler flux using noninvasive laser Doppler flowmetry (PeriFlux System 5000, Perimed AB, Sweden). Laser Doppler probes were placed on the kidney surface to measure the renal flux. The flux was measured 48 h after CM administration. The relative increase represented the percentage increase in renal blood flow from baseline to peak for each test. Statistical significance was set as p<0.05.

[3] = system: contrast-induced acute kidney injury (CIAKI) mice; assay: CIAKI mouse model: necrotic and apoptotic cell death, gross findings; type: in vivo, C57/BL6 mice; conditions: 48 h after CM
Experimental: Kidneys were harvested at 48 h after the CM injection, fixed in 4% phosphate-buffered formalin, and embedded in paraffin. To evaluate necrosis, […] paraffin sections were stained with hematoxylin and eosin. Tubular injury was scored semi-quantitatively according to a system by a pathologist who examined at least 20 separate fields (400× magnification) in the outer medulla, which is the zone most sensitive to ischemic injury. The scoring system was as follows: 0, no damage; 1, patchy isolated unicellular necrosis; 2, tubular necrosis <25%; 3, tubular necrosis 25-50%; and 4, tubular necrosis >50%. At least 20 consecutive high-power fields per section were scored by two operators blind to the details of the experiment. To analyze the frequency of apoptosis, […] paraffin sections were subjected to terminal deoxynucleotidyl transferase-mediated dUTP nick-end labeling (TUNEL) assay (Millipore, Temecula, CA, USA) according to the manufacturer's protocol. Four […] paraffin sections were incubated with the TUNEL reaction mixture at 37° C. for 1 h, followed by incubation with a horseradish peroxidase-conjugated detection antibody. The signals were visualized using diaminobenzidine (Sigma-Aldrich). After counterstaining with Mayer's hematoxylin, TUNEL-positive cells were counted in at least five separate fields (640× magnification) in the outer medulla, and the apoptosis index (%, number of apoptosis cells/total number of cells) was calculated using GENASIS software.

[4] = system: human renal proximal tubular epithelial cells (hRPTECs); assay: hRPTEC apoptosis by flow cytometry with iodixanol; type: cell-based; conditions: drug with iodixanol 50 mgI/mL, 24 h
Experimental: Human renal proximal tubular epithelial cells (hRPTECs) were purchased from the American Type Culture Collection (#PCS-400-010TM, Manassas, VA, USA). These cells were grown in 75 cm^2 flasks in Renal Epithelial Cell Basal Medium (PCS-400-030TM, ATCCVR) supplemented with Renal Epithelial Cell Growth Kit (PCS-400-040TM, ATCCVR).
After the treatment described in the section above, the hRPTECs were pelleted by centrifugation at 1800 rpm for 10 min and incubated with annexin V fluorescein isothiocyanate and propidium iodide using an Apoptosis Detection Kit I (#556547, BD Biosciences, San Jose, CA, USA) according to the manufacture's instruction. Then quantification was conducted using a FACSC flow cytometer with Cell Quest software (BD Biosciences).

[5] = rapidly degraded by 15-PGDH; cited from earlier work
[6] = system: human renal proximal tubular epithelial cells (hRPTECs); assay: hRPTEC cell viability (MTT assay) with iodixanol; type: cell-based; conditions: iodixanol 50 mgI/mL, 24 h; PGE1 100 ng/mL, PGE2 100 nM vs CM vehicle; CM vs normal control
Experimental: 3-(4,5-Dimethyl thiazol-2-yl)-2,5-diphenyl tetrazolium bromide (MTT) assay was used to assess cell viability. The hRPTECs were cultivated in 96-well plates at a density of 10^5 cells/mL and then incubated for 24 h. […] Then, 10 µM MTT (Sigma-Aldrich) was added to each well for an additional 4 h. The blue MTT formazan precipitate was dissolved in 100 mL dimethyl sulfoxide. The absorbance at 540 nm was measured with a multi-well plate reader. Cell viability was expressed as a percentage of the no-treatment cells, as the mean value±standard deviation of the six independent experiments.

CCCCC[C@H](O)/C=C/[C@H]1[C@H](O)CC(=O)[C@@H]1C/C=C\CCCC(=O)O [PGE2, prostaglandin E2]
AMP level compared to CIAKI mice, in words [1]: increased | adenosine level compared to CIAKI mice, in words [1]: increased | RBF (renal Doppler flux) [2]: 541.4±22.65 | TUNEL-positive cell proportions vs CIAKI mice, in words [3]: significantly lower | vascular congestion in the outer medullary region (gross findings) [3]: less-congested | microscopic renal injury score ([3]; CM + drug, score 0-4): 1.55±0.14 | apoptosis rate of hRPTECs [4]: 19.43±1.38% | estimated half-life [5]: less than 15 s | cell viability (MTT), in words [6]: did not show any difference
